These are literature values, as cited in patent US20080253966A1, “Diagnostic, Prognostic, and Therapeutic Factor Smac/Diablo in Human Cancer” (The Regents of The University of California, priority 2004, published 2008).

This data set relates to cell lines treated with paclitaxel, etoposide, camptothecin, and doxorubicine.

As to “first four amino acids of Smac/DIABLO: the first four amino acids of Smac/DIABLO (Arnt et al., J. Biol. Chem. 2002) (AVPI; UniProt Q9NR28 56-59, looked up, fragment)”, the effect on apoptosis result is “increased apoptosis”.
